# *1 amine or outer side, *2 acyl side, *3 side chain or, on linkers, in order; H or OH if unused. Where a SMILES comes first, the peptide text is derived from it. Bridges are numbered along the chain shown (N, C = ends). [ ]: non-standard residue; d: D form. The star is where a group is joined. hPhe(3-Cl-4-CF3) = N[C@@H](CCc1ccc(C(F)(F)F)c(Cl)c1)C(=O)O; NPrPhe(4-CF3) = CCCN[C@@H](Cc1ccc(C(F)(F)F)cc1)C(=O)O; X20 = CCCN([C@@H](CC1CCC(F)(F)CC1)C(=O)[*:2])[*:1]; NMeGly(cPent) = CN[C@H](C(=O)O)C1CCCC1; Hyp = O=C(O)[C@@H]1C[C@@H](O)CN1; NMeD = CN[C@@H](CC(=O)O)C(=O)O; NMeL = CN[C@@H](CC(C)C)C(=O)O; Morpholide = C1CN(*)CCO1; Ac5c = NC1(C(=O)O)CCCC1; Aze = O=C(O)[C@@H]1CCN1; Ac4c = NC1(C(=O)O)CCC1; Sar = CNCC(=O)O
# Key:
# [1] = target: GDP-bound NRAS wild-type protein (Homo sapiens, UniProt P01111); experiment: Binding to NRAS by surface plasmon resonance (SPR), Single Cycle Kinetics
# [2] = target: GDP-bound HRAS wild-type protein (Homo sapiens, UniProt P01112); experiment: Binding to HRAS by surface plasmon resonance (SPR), Single Cycle Kinetics
# [3] = KD ratio NRAS/KRAS, class symbols
# [4] = KD ratio HRAS/KRAS, class symbols
# Chain of GDP-bound HRAS wild-type protein (P01112 whole entry): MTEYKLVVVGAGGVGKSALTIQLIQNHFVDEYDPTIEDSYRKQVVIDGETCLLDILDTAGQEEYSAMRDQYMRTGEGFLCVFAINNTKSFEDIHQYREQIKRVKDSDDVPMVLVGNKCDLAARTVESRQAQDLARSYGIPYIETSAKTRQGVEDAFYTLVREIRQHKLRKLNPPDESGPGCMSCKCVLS
# Chain of GDP-bound NRAS wild-type protein (P01111 whole entry): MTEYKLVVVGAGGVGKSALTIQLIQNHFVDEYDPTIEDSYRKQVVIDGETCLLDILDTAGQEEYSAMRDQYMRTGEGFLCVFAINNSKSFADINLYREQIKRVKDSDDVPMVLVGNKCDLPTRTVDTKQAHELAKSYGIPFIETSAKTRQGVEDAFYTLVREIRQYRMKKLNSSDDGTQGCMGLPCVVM
smiles,measurement,setting,value
CCO[C@@H]1C[C@H]2C(=O)NC3(CCC3)C(=O)N(C)[C@@H](C3CCCC3)C(=O)N(C)[C@H](C(=O)N3CCOCC3)CC(=O)N(C)[C@@H](Cc3ccccc3)C(=O)N[C@@H]([C@@H](C)CC)C(=O)N(C)CC(=O)N(C)[C@H]3CCCCCN(C3=O)[C@@H](Cc3ccc(C(F)(F)F)cc3)C(=O)N(C)CC(=O)N[C@@H](CCc3cc(F)c(C(F)(F)F)c(F)c3)C(=O)N2C1 [PP0687],NRAS/KRAS (ratio of KD value with respect to GDP-bound NRAS wild-type protein to KD value with respect to KRAS),"[1]; KD ratio NRAS/KRAS, SPR",B (a compound having 3 or more and less than 10 is denoted as B)
same,HRAS/KRAS (ratio of KD value with respect to GDP-bound HRAS wild-type protein to KD value with respect to KRAS),"[2]; KD ratio HRAS/KRAS, SPR",B (a compound having 3 or more and less than 10 is denoted as B)
CCO[C@@H]1C[C@H]2C(=O)NC3(CC(C)(C)C3)C(=O)N(C)[C@@H](C(CC)CC)C(=O)N(C)[C@H](C(=O)N(C)C)CC(=O)N(C)[C@@H](CC)C(=O)N[C@@H]([C@@H](C)CC)C(=O)N(C)CC(=O)N(C)[C@H]3C/C=C\CCN(C3=O)[C@@H](Cc3ccc(C)cc3)C(=O)N(C)CC(=O)N[C@@H](CCc3ccc(C(F)(F)F)c(Cl)c3)C(=O)N2C1 [PP2154],NRAS/KRAS (ratio of KD value with respect to NRAS to KD value with respect to KRAS),"[1]; SPR, GDP-bound NRAS wild-type vs GDP-bound KRAS wild-type",A (a compound having 10 or more and less than 20 is denoted as A)
same,HRAS/KRAS (ratio of KD value with respect to HRAS to KD value with respect to KRAS),"[2]; SPR, GDP-bound HRAS wild-type vs GDP-bound KRAS wild-type",A (a compound having 10 or more and less than 20 is denoted as A)
CCCOC[C@H]1C(=O)N[C@@H]([C@@H](C)CC)C(=O)N(C)CC(=O)N(C)[C@H]2C/C=C\CCN(C2=O)[C@@H](Cc2ccc(C(F)(F)F)cc2)C(=O)N(C)CC(=O)N[C@@H](CCc2ccc(C(F)(F)F)c(Cl)c2)C(=O)N2C[C@H](OCC)C[C@H]2C(=O)NC2(CCC2)C(=O)N(C)[C@@H](C2CCCC2)C(=O)N(C)[C@H](C(=O)N(C)CCC)CC(=O)N1C [PP2831],NRAS/KRAS (ratio of KD value with respect to GDP-bound NRAS wild-type protein to KD value with respect to KRAS),[1]; [3],A (a compound having 10 or more and less than 20 is denoted as A)
same,HRAS/KRAS (ratio of KD value with respect to GDP-bound HRAS wild-type protein to KD value with respect to KRAS),[2]; [4],A (a compound having 10 or more and less than 20 is denoted as A)
CC[C@H](C)[C@@H]1NC(=O)[C@H](CC2CC2)N(C)C(=O)C[C@@H](C(=O)N(C)C)N(C)C(=O)[C@H](C2CCCC2)N(C)C(=O)C2(CC(C)(C)C2)NC(=O)[C@@H]2C[C@@H](F)CN2C(=O)[C@H](CCc2cc(F)c(C(F)(F)F)c(F)c2)NC(=O)CN(C)C(=O)[C@H](Cc2ccc(C)cc2)N2CC/C=C\C[C@@H](C2=O)N(C)C(=O)CN(C)C1=O [PP2804],NRAS/KRAS (ratio of KD value with respect to GDP-bound NRAS wild-type protein to KD value with respect to KRAS),[1]; [3],A (a compound having 10 or more and less than 20 is denoted as A)
same,HRAS/KRAS (ratio of KD value with respect to GDP-bound HRAS wild-type protein to KD value with respect to KRAS),[2]; [4],A (a compound having 10 or more and less than 20 is denoted as A)
CCCN1C(=O)CN(C)C(=O)[C@@H]2CCN2C(=O)[C@H]([C@@H](C)CC)NC(=O)[C@H](CC(C)C)N(C)C(=O)C[C@@H](C(=O)N2CCOCC2)N(C)C(=O)[C@H](C2CCCC2)N(C)C(=O)C2(CCC2)NC(=O)[C@@H]2C[C@@H](OCC)CN2C(=O)[C@H](CCc2ccc(C(F)(F)F)c(Cl)c2)NC(=O)CN(C)C(=O)[C@@H]1Cc1ccc(C(F)(F)F)cc1 [PP0405] ([NMeL]I[Aze][Sar][NPrPhe(4-CF3)][Sar][hPhe(3-Cl-4-CF3)][Hyp](Et)[Ac4c][NMeGly(cPent)][NMeD]-Morpholide; lactam N-11),NRAS/KRAS (ratio of KD for GDP-bound NRAS wild-type to KD for KRAS),"[1]; KD ratio NRAS/KRAS, SPR",B (a compound having 3 or more and less than 10 is denoted as B)
same,HRAS/KRAS (ratio of KD for GDP-bound HRAS wild-type to KD for KRAS),"[2]; KD ratio HRAS/KRAS, SPR",C (A compound having a KD ratio of 0.1 or more and less than 3 is denoted as C)
CCC[C@H]1C(=O)N[C@@H](C2CCCCC2)C(=O)N(C)CC(=O)N(C)[C@H]2C/C=C\CCN(C2=O)[C@@H](Cc2ccc(C(F)(F)F)cc2)C(=O)N(C)CC(=O)N[C@@H](CCc2ccc(C(F)(F)F)c(Cl)c2)C(=O)N2C[C@H](OCC)C[C@H]2C(=O)NC2(CC(C)(C)C2)C(=O)N(C)[C@@H](CC(C)(C)C)C(=O)N(C)[C@H](C(=O)N(C)C)CC(=O)N1C [PP3014],NRAS/KRAS (ratio of KD value with respect to GDP-bound NRAS wild-type protein to KD value with respect to KRAS),"[1]; KD ratio NRAS/KRAS, SPR, GDP-bound wild-type proteins",AA (a compound having 20 or more is denoted as AA)
same,HRAS/KRAS (ratio of KD value with respect to GDP-bound HRAS wild-type protein to KD value with respect to KRAS),"[2]; KD ratio HRAS/KRAS, SPR, GDP-bound wild-type proteins",A (a compound having 10 or more and less than 20 is denoted as A)
CCCN1C(=O)CN(C)C(=O)CN(C)C(=O)[C@H]([C@@H](C)CC)NC(=O)[C@H](CC(C)C)N(C)C(=O)C[C@@H](C(=O)N2CCOCC2)N(C)C(=O)[C@H](C2CCCC2)N(C)C(=O)C2(CCCC2)NC(=O)[C@@H]2CCCN2C(=O)[C@H](CCc2ccc(C(F)(F)F)c(Cl)c2)NC(=O)CN(C)C(=O)[C@@H]1CC1CCC(F)(F)CC1 [PP0526] ([NMeL]I[Sar][Sar][X20][Sar][hPhe(3-Cl-4-CF3)]P[Ac5c][NMeGly(cPent)][NMeD]-Morpholide; lactam N-11),NRAS/KRAS (ratio of KD value with respect to GDP-bound NRAS wild-type protein to KD value with respect to KRAS),"[1]; KD ratio NRAS/KRAS, SPR",B (a compound having 3 or more and less than 10 is denoted as B)
same,HRAS/KRAS (ratio of KD value with respect to GDP-bound HRAS wild-type protein to KD value with respect to KRAS),"[2]; KD ratio HRAS/KRAS, SPR",C (A compound having a KD ratio of 0.1 or more and less than 3 is denoted as C)

# — patent US20250230193A1, “CYCLIC COMPOUND HAVING SELECTIVE KRAS INHIBITORY EFFECT ON HRAS AND NRAS” (CHUGAI SEIYAKU KABUSHIKI KAISHA, priority 2022, published 2025)
